From patent US20020137929A1, “1 - (3-heterocyclylphenyl) isothiourea, -isourea, -guanidine and -amidine herbicidal agents” (Intellectual Property Department, BASF Aktiengesellschaft, priority 1998, published 2002)

How the values were obtained:
[1] = tested on: AMBEL (Ragweed, Common); assay: Postemergence herbicidal evaluation; assay type: in vivo, Ambrosia artemisifolia; conditions: postemergence
How it was run: (§1)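 Visual 0–9 rating versus control (stand, vigor, malformation, size, chlorosis, overall appearance), taken four to five weeks post-spray. Two-week-old seedlings received roughly 0.0156–0.500 kg/ha active in acetone/water (50/50) with 0.5% TWEEN 20 via nozzle at 40 psi.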

[2] = tested on: TRZAWR (Wheat, Winter, cv Riband); assay: Postemergence herbicidal evaluation; assay type: in vivo, Triticum aestivum; conditions: postemergence
How it was run: as §1

[3] = tested on: GALAP (Galium); assay: Preemergence herbicidal evaluation; assay type: in vivo, Galium aparine; conditions: rated 4-5 weeks after treatment
How it was run: (§2)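 In this greenhouse assay, monocot and dicot seeds are planted in soil and treated prior to emergence with an aqueous acetone spray (about 0.0156-0.500 kg/ha). Plants are assessed visually against control on a 0-9 scale after 4-5 weeks.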

[4] = tested on: IPOHE (Morningglory, Ivyleaf); assay: Preemergence herbicidal evaluation; assay type: in vivo, Ipomoea hederacea; conditions: rated 4-5 weeks after treatment
How it was run: as §2

[5] = tested on: ECHCG (Barnyardgrass); assay: Postemergence herbicidal evaluation; assay type: in vivo, Echinochloa crus-galli; conditions: postemergence
How it was run: as §1

[6] = tested on: GLXMAW (Soybean, Williams); assay: Postemergence herbicidal evaluation; assay type: in vivo, Glycine max, (L.) Merr. cv Williams; conditions: postemergence
How it was run: as §1

[7] = tested on: ECHCG (Barnyardgrass); assay: Preemergence herbicidal evaluation; assay type: in vivo, Echinochloa crus-galli; conditions: rated 4-5 weeks after treatment
How it was run: as §2

[8] = tested on: CHEAL (Lambsquarters, Common); assay: Preemergence herbicidal evaluation; assay type: in vivo, Chenopodium album; conditions: rated 4-5 weeks after treatment
How it was run: as §2

[9] = tested on: ZEAMX (Corn, Field); assay: Preemergence herbicidal evaluation; assay type: in vivo, Zea mays; conditions: rated 4-5 weeks after treatment
How it was run: as §2

[10] = tested on: ABUTH (Velvetleaf); assay: Postemergence herbicidal evaluation; assay type: in vivo, Abutilon theophrasti; conditions: postemergence
How it was run: as §1

[11] = tested on: CASOB (Sicklepod); assay: Preemergence herbicidal evaluation; assay type: in vivo, Cassia obtusifolia; conditions: rated 4-5 weeks after treatment
How it was run: as §2

[12] = tested on: SETVI (Foxtail, Green); assay: Postemergence herbicidal evaluation; assay type: in vivo, Setaria viridis; conditions: postemergence
How it was run: as §1

[13] = tested on: ECHORC (Watergrass (Calif.)); assay: Postemergence weed control under flooded paddy conditions; assay type: in vivo, Echinochloa oryzoides; conditions: postemergence weeds, rated 3 to 4 weeks after treatment
How it was run: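 Containers holding 3–5 cm weeds and rice at 1.5–2.5 leaves are flooded to 1.5–3 cm above soil. Compound in 50/50 v/v aqueous/acetone is then added directly to the water, about 0.0313–0.500 kg/ha. Plants are kept in the greenhouse and rated 0–9 visually at 3–4 weeks.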

[14] = tested on: IPOHE (Morningglory, Ivyleaf); assay: Postemergence herbicidal evaluation; assay type: in vivo, Ipomoea hederacea; conditions: postemergence
How it was run: as §1

Cn1c(C(F)(F)F)cc(=O)n(-c2cc(N=C3SCC(=O)N3[C@H](Cc3ccccc3)C(=O)O)c(Cl)cc2F)c1=O [Compound 69, α-Benzyl-2-{{2-chloro-5-[3,6-dihydro-3-methyl-2,6-dioxo-4-(trifluoromethyl)-1(2H)-pyrimidinyl]-4-fluorophenyl}imino}-4-oxo-3-thiazolidineacetic acid, D-]
AMBEL herbicidal rating ([1]; rate 0.0158 kg/ha): 9.0 | AMBEL herbicidal rating ([1]; rate 0.0315 kg/ha): 9.0 | AMBEL herbicidal rating ([1]; rate 0.0630 kg/ha): 9.0 | TRZAWR herbicidal rating ([2]; rate 0.0158 kg/ha): 3.0 | TRZAWR herbicidal rating ([2]; rate 0.0315 kg/ha): 3.0 | TRZAWR herbicidal rating ([2]; rate 0.0630 kg/ha): 4.5 | Preemergence herbicidal rating GALAP ([3]; rate 0.0156 kg/ha): 0.0 | Preemergence herbicidal rating GALAP ([3]; rate 0.0313 kg/ha): 0.0 | Preemergence herbicidal rating GALAP ([3]; rate 0.0625 kg/ha): 0.0 | Preemergence herbicidal rating GALAP ([3]; rate 0.1250 kg/ha): 1.0 | Preemergence herbicidal rating GALAP ([3]; rate 0.2500 kg/ha): 1.0 | Preemergence herbicidal rating IPOHE ([4]; rate 0.0313 kg/ha): 0.0 | Preemergence herbicidal rating IPOHE ([4]; rate 0.0625 kg/ha): 2.0 | Preemergence herbicidal rating IPOHE ([4]; rate 0.1250 kg/ha): 1.0 | Preemergence herbicidal rating IPOHE ([4]; rate 0.2500 kg/ha): 4.0 | ECHCG herbicidal rating ([5]; rate 0.0158 kg/ha): 2.0 | ECHCG herbicidal rating ([5]; rate 0.0315 kg/ha): 1.0 | ECHCG herbicidal rating ([5]; rate 0.0630 kg/ha): 4.0 | GLXMAW herbicidal rating ([6]; rate 0.0158 kg/ha): 5.5 | GLXMAW herbicidal rating ([6]; rate 0.0315 kg/ha): 6.0 | GLXMAW herbicidal rating ([6]; rate 0.0630 kg/ha): 6.0 | Preemergence herbicidal rating ECHCG ([7]; rate 0.0156 kg/ha): 0.0 | Preemergence herbicidal rating ECHCG ([7]; rate 0.0313 kg/ha): 0.0 | Preemergence herbicidal rating ECHCG ([7]; rate 0.0625 kg/ha): 0.0 | Preemergence herbicidal rating ECHCG ([7]; rate 0.1250 kg/ha): 1.0 | Preemergence herbicidal rating ECHCG ([7]; rate 0.2500 kg/ha): 3.0 | Preemergence herbicidal rating CHEAL ([8]; rate 0.0156 kg/ha): 9.0 | Preemergence herbicidal rating CHEAL ([8]; rate 0.0313 kg/ha): 9.0 | Preemergence herbicidal rating CHEAL ([8]; rate 0.0625 kg/ha): 9.0 | Preemergence herbicidal rating CHEAL ([8]; rate 0.1250 kg/ha): 9.0 | Preemergence herbicidal rating CHEAL ([8]; rate 0.2500 kg/ha): 9.0 | Preemergence herbicidal rating ZEAMX ([9]; rate 0.0156 kg/ha): 0.0 | Preemergence herbicidal rating ZEAMX ([9]; rate 0.0313 kg/ha): 0.0 | Preemergence herbicidal rating ZEAMX ([9]; rate 0.0625 kg/ha): 0.0 | Preemergence herbicidal rating ZEAMX ([9]; rate 0.1250 kg/ha): 3.0 | Preemergence herbicidal rating ZEAMX ([9]; rate 0.2500 kg/ha): 3.0 | ABUTH herbicidal rating ([10]; rate 0.0158 kg/ha): 9.0 | ABUTH herbicidal rating ([10]; rate 0.0315 kg/ha): 9.0 | ABUTH herbicidal rating ([10]; rate 0.0630 kg/ha): 9.0 | Preemergence herbicidal rating CASOB ([11]; rate 0.0156 kg/ha): 0.0 | Preemergence herbicidal rating CASOB ([11]; rate 0.0313 kg/ha): 0.0 | Preemergence herbicidal rating CASOB ([11]; rate 0.0625 kg/ha): 0.0 | Preemergence herbicidal rating CASOB ([11]; rate 0.1250 kg/ha): 1.0 | Preemergence herbicidal rating CASOB ([11]; rate 0.2500 kg/ha): 5.0 | SETVI herbicidal rating ([12]; rate 0.0158 kg/ha): 3.0 | SETVI herbicidal rating ([12]; rate 0.0315 kg/ha): 1.0 | SETVI herbicidal rating ([12]; rate 0.0630 kg/ha): 1.0 | Herbicidal rating ECHORC ([13]; Rate 0.0313 kg/ha): 0.0 | Herbicidal rating ECHORC ([13]; Rate 0.0625 kg/ha): 4.0 | Herbicidal rating ECHORC ([13]; Rate 0.1250 kg/ha): 5.0 | Herbicidal rating ECHORC ([13]; Rate 0.2500 kg/ha): 7.0 | IPOHE herbicidal rating ([14]; rate 0.0158 kg/ha): 9.0 | IPOHE herbicidal rating ([14]; rate 0.0315 kg/ha): 9.0 | IPOHE herbicidal rating ([14]; rate 0.0630 kg/ha): 9.0
